For assay [1], the system named is M-Type antigen (SARS coronavirus protein antigen, ProSci). The format is binding.
Assay [2] deals with E-type antigen (SARS coronavirus protein antigen, ProSci). The format is binding.

The record followed here is US20100304363A1 (E[…] TELECOMM[…] INSTITUTE, priority 2009, published 2010).

For Ala-Ile, in assay [1], the “M (mean value)” value amounted to 0.057 and the “M-Type Ranking” value turned out to be 30. In addition, in assay [2], the “E Value” came to 0.154 and the “E-Type Ranking” value was found to be 17.
The matching figures for Arg-Phe: 0.072, 21, 0.183 and 9.
The matching figures for Asp-Cys: 0.114, 5, 0.238 and 5.
The matching figures for Asp-Glu: 0.169, 2, 0.520 and 2.
For Asp-Ser, in assay [1], the “M (mean value)” value is recorded as 0.087 and the “M-Type Ranking” value was 11. For the same substance, in assay [2], the “E Value” is listed as 0.132 and the “E-Type Ranking” value came out at 25.
The matching figures for Cys-Asp: 0.144, 3, 0.326 and 4.
In the case of Cys-Glu, in assay [1], the “M (mean value)” value was 0.143 and the “M-Type Ranking” value was found to be 4. Further, in assay [2], the “E Value” is recorded as 0.356 and the “E-Type Ranking” value stood at 3.
For Cys-Phe, in assay [1], the “M (mean value)” value is recorded as 0.069 and the “M-Type Ranking” value is reported as 24. Moreover, in assay [2], the “E Value” is listed as 0.165 and the “E-Type Ranking” value is listed as 13.
Turning to Gln-Trp, in assay [1], the “M (mean value)” value was found to be 0.093 and the “M-Type Ranking” value was found to be 8. For the same substance, in assay [2], the “E Value” is reported as 0.166 and the “E-Type Ranking” value turned out to be 12.
As to Glu-Asp, in assay [1], the “M (mean value)” value came to 0.186 and the “M-Type Ranking” value is on record as 1. In addition, in assay [2], the “E Value” amounted to 0.552 and the “E-Type Ranking” value stood at 1.
Glu-Ser: in assay [1], the “M (mean value)” value is on record as 0.111 and the “M-Type Ranking” value was found to be 6. For the same substance, in assay [2], the “E Value” is given as 0.198 and the “E-Type Ranking” value is 6.
Turning to Ile-Met, in assay [1], the “M (mean value)” value is reported as 0.074 and the “M-Type Ranking” value is on record as 18. In addition, in assay [2], the “E Value” is on record as 0.139 and the “E-Type Ranking” value is 22.
The matching figures for Leu-Val: 0.088, 10, 0.147 and 21.
For Lys-Phe, in assay [1], the “M (mean value)” value is recorded as 0.080 and the “M-Type Ranking” value was determined as 14. Moreover, in assay [2], the “E Value” amounted to 0.154 and the “E-Type Ranking” value is listed as 16.
The like results for Phe-Arg were, in that order, 0.080, 13, 0.167 and 11.
On to Phe-Leu, for which, in assay [1], the “M (mean value)” value was 0.061 and the “M-Type Ranking” value was determined as 27. In assay [2], the “E Value” worked out at 0.198 and the “E-Type Ranking” value was found to be 6.
The like results for Phe-Met were, in that order, 0.059, 29, 0.190 and 8.
On to Phe-Phe, for which, in assay [1], the “M (mean value)” value is listed as 0.059 and the “M-Type Ranking” value was 28. Further, in assay [2], the “E Value” is reported as 0.116 and the “E-Type Ranking” value was determined as 29.
The matching figures for Phe-Trp: 0.071, 22, 0.159 and 14.
In the case of Phe-Tyr, in assay [1], the “M (mean value)” value is reported as 0.078 and the “M-Type Ranking” value is reported as 15. Besides, in assay [2], the “E Value” is recorded as 0.127 and the “E-Type Ranking” value worked out at 26.
The matching figures for Ser-Asp: 0.091, 9, 0.136 and 23.
The matching figures for Ser-Cys: 0.087, 12, 0.149 and 19.
The matching figures for Ser-Glu: 0.073, 20, 0.135 and 24.
For Trp-Gln, in assay [1], the “M (mean value)” value came out at 0.073 and the “M-Type Ranking” value amounted to 19. Also, in assay [2], the “E Value” is 0.155 and the “E-Type Ranking” value was 15.
As to Trp-Phe, in assay [1], the “M (mean value)” value is given as 0.069 and the “M-Type Ranking” value is reported as 23. Besides, in assay [2], the “E Value” is on record as 0.148 and the “E-Type Ranking” value was 20.
On to Tyr-Gln, for which, in assay [1], the “M (mean value)” value turned out to be 0.069 and the “M-Type Ranking” value is reported as 25. Besides, in assay [2], the “E Value” was 0.122 and the “E-Type Ranking” value is 27.
For the substance Tyr-Trp, in assay [1], the “M (mean value)” value is given as 0.063 and the “M-Type Ranking” value worked out at 26. Besides, in assay [2], the “E Value” stood at 0.090 and the “E-Type Ranking” value was 30.
For Val-Ala, in assay [1], the “M (mean value)” value was 0.077 and the “M-Type Ranking” value turned out to be 17. In assay [2], the “E Value” was determined as 0.118 and the “E-Type Ranking” value was found to be 28.
Regarding Val-Met, in assay [1], the “M (mean value)” value was determined as 0.094 and the “M-Type Ranking” value came to 7. In assay [2], the “E Value” is given as 0.151 and the “E-Type Ranking” value is 18.
